Assay [1] addresses T1, R103E-SWELL1 expressing HEK-293 cells (R103E O/E) (Homo sapiens, UniProt Q8IWT6, R103E).
T1 construct: P2A:EGFP (C); host or cells: HEK-293, Lipofectamine 2000, co-transfected with CMV-Cre; EGFP+ cells recorded
The experiment in a line: ICl,SWELL inhibition in SWELL1-R103E overexpressing cells, patch-clamp. It is filed as cell-based. An excerpt:
See also Fig. 6 for a schematic representation. […] For SWELL1-R103E overexpression experiments, HEK-293 cells were transfected with either control Cre plasmid (CMV-Cre, McDonnell Genome Institute in Washington University in St. Louis) or Cre plus R103E-GFP (CAG-LoxP-stop-LoxP-SWELL1-R103E/3XFlag:P2A:EGFP, Vector Biolabs) plasmid using Lipofectamine 2000 as per the manufacturer’s protocol. SWELL1-R103E expressing HEK-293 cells were identified by EGFP + fluorescence.

The test system of assay [2] is eWAT adipocytes. The assay can be described thus: Adipocyte size in eWAT of treated mice. It is filed as in vivo, mouse. As to conditions: 5 days, vs vehicle. The method, then:
Mice epididymal white adipose tissue (eWAT) was isolated and fixed in 10% neutral buffer formalin for 24 h at 4 °C. The formalin-fixed eWAT tissue was washed twice with 1XPBS buffer and dehydrated in a series of ethanol gradient. The dehydrated tissue was embedded in paraffin wax and 10 μm sections were cut by automated microtome and mounted on positively charged slides. Hematoxylin and eosin staining of the slides was performed at the Musculoskeletal Research Center, Washington University in St. Louis. Images were captured by Zeiss Axioscop with 10X objective and analyzed by ImageJ software. Measurement of adipocyte area was performed using the polygon selection tool of ImageJ. All quantifications were performed by blinded independent observers.

The subject of assay [3] is T2, SWELL1 protein in 3T3-F442A preadipocytes.
T2 construct: host or cells: 3T3-F442A preadipocytes and differentiated adipocytes (wild type)
The experiment in a line: SWELL1 protein western blot in preadipocytes. It is filed as cell-based, murine. The conditions noted are these: 10 µM, 96 h. How it is done:
In the case of 3T3-F442A adipocytes, the WT and KO cells were treated with either vehicle (DMSO), 1 or 10 µM SN-40X (after 7–11 days of differentiation) for 96 h and then stimulated with 0 and 10 nM insulin/serum-containing media with vehicle (DMSO) or SN-40X for 15 min for SWELL1 detection. […] To simulate glucolipotoxicity, 8 mM sodium palmitate was dissolved in 18.4% fatty-acid free BSA at 37 °C in DMEM medium with 25 mM glucose to obtain a conjugation ratio of 1:3 palmitate:BSA[80].
Adipocytes were washed twice in ice-cold phosphate buffer saline and lysed in RIPA buffer (150 mM NaCl, 20 mM HEPES, 1% NP-40, 5 mM EDTA, pH 7.4) with proteinase/phosphatase inhibitors (Roche). The cell lysate was further sonicated in 10 s cycle intervals 2–3 times and centrifuged at 18,407×g for 30 min at 4 °C and repeated one more time to remove the excess fat. The supernatant was collected and further estimated for protein concentration using a DC protein assay kit (Bio-Rad). Fat and liver tissues were homogenized and suspended in RIPA buffer with inhibitors and further processed in a similar fashion as described above. HUVECs were also prepared in a similar fashion except the lysates were spun only once to remove the cells debris to obtain the clear supernatant. […] The images were further analyzed for band intensities using ImageJ software. […]
On the technique in general: In western blotting, separated proteins are transferred to a membrane and probed.

Entries after “also recorded” stand apart in the source; their conditions may differ.

T1 sequence (Q8IWT6 whole entry R103E): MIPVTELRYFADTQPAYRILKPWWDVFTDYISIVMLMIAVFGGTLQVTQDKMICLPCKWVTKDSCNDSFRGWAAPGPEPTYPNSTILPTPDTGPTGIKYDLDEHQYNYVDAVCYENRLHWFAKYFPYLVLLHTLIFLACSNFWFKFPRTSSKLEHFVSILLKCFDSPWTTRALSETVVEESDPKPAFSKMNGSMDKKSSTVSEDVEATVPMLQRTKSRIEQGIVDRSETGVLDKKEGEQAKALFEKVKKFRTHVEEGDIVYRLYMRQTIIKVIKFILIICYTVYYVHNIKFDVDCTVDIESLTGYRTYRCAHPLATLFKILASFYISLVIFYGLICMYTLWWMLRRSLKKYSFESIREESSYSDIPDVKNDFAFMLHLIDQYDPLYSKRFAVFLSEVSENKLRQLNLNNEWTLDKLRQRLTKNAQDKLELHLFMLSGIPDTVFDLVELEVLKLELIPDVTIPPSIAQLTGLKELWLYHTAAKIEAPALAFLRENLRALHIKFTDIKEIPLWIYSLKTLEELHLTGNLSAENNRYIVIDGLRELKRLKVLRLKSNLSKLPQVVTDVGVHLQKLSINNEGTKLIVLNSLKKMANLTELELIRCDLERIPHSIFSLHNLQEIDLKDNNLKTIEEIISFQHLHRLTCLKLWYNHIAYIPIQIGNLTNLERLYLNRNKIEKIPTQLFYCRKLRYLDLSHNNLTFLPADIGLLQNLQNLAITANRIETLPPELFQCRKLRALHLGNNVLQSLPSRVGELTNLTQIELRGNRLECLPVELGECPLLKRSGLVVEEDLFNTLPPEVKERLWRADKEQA

What is called IC50 is the concentration needed to halve the response being measured. Turning to `CCCCC1(C2CCCC2)Cc2cc(OCCCC(=O)O)c(Cl)c(Cl)c2C1=O` (stereo not shown) [SN-401, 4-((2-butyl-6,7-dichloro-2-cyclopentyl-1-oxo-2,3-dihydro-1H-inden-5-yl)oxy)butanoic acid], the IC50 in assay [1] was 6 µM. Besides, in assay [2] (HFD-fed mice), the adipocyte size result was “unchanged; also recorded: no significant differences”. This compound also returned an adipocyte size reduction in assay [2] (KKAy mice) of 9%. Besides, in assay [3], the SWELL1 protein expression result is on record as “threefold”.

For the origin of these results see paper PMC8831520, “Small molecule SWELL1 complex induction improves glycemic control and nonalcoholic fatty liver disease in murine Type 2 diabetes” (Nature Communications, 2022).
